Test results from patent publication US11840528B2 (Hoffmann-La Roche Inc., priority 2018, dated 2023).

Assays:
h-GABA-A α5β3γ2 [1] = biological target: T1, h-GABA-A α5β3γ2 (Homo sapiens, UniProt P18507+P31644); assay: Two-electrode voltage clamp electrophysiology in Xenopus laevis oocytes expressing GABAA receptors, modulation of GABA EC20 current; format: cell-based; design: host or cells: Xenopus laevis oocytes micro-injected with RNA transcripts of the subunits; settings: Table 1; for Efficacy (GABA) %: % modulation of GABA EC20 = 100*(Fold increase-1); for Fold increase h-GABA-A α5β3γ2 oocyte: test compound at approx. 30 fold its Ki, GABA at EC20
In short: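 Human α5β3γ2 GABAA receptors were expressed in Xenopus oocytes by RNA injection, with γ2 RNA 5–10-fold higher, and recorded 3–5 days later by two-electrode voltage clamp at −80 mV at room temperature. The test compound, at about 30× its Ki, was co-applied during a second GABA EC20 pulse. Efficacy is the extremum of the point-by-point ratio to the first response, expressed as 100*(Fold increase−1).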

h-GABA-A α5β3γ2 [2] = biological target: T1, h-GABA-A α5β3γ2; assay: [3H]flumazenil competition binding assay, membranes of HEK293 cells expressing GABAA receptors; settings: displacement of [3H]-Flumazenil 0.5 nM, HEK293 cells expressing human receptors, mean of two determinations; Table 1
In short: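 Membranes from HEK293 cells transiently expressing human α5β3γ2 GABAA receptors, in Krebs-tris buffer pH 7.5, competed against [3H]flumazenil for 1 hour at 4° C to equilibrium. Bound radioactivity collected on GF/C filters and counted by liquid scintillation; Ki values are means of two determinations.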

Compound | Efficacy (GABA) % (h-GABA-A α5β3γ2 [1]) | Fold increase h-GABA-A α5β3γ2 oocyte (h-GABA-A α5β3γ2 [1]) | Ki (h-GABA-A α5β3γ2 [2])
Cc1onc(-c2ccc(Cl)nc2)c1Cn1ncc(N2CC3(CCCO3)C2)cc1=O [Example 209, 2-((3-(6-chloropyridin-3-yl)-5-methylisoxazol-4-yl)methyl)-5-(5-oxa-2-azaspiro[3.4]octan-2-yl)pyridazin-3(2H)-one] | 94% | 1.94 | 52.7 nM
CCCn1cc(-c2cnn(Cc3c(-c4ccc(C)nc4)noc3C)c(=O)c2)cn1 [Example 210, 2-((5-methyl-3-(6-methyl-3-pyridyl)isoxazol-4-yl)methyl)-5-(1-propylpyrazol-4-yl)pyridazin-3-one] | 143% | 2.43 | 26 nM
Cc1ccc(-c2noc(C)c2Cn2ncc(-c3cccc(C#N)n3)cc2=O)cn1 [Example 211, 6-(1-((5-methyl-3-(6-methyl-3-pyridyl)isoxazol-4-yl)methyl)-6-oxo-pyridazin-4-yl)pyridine-2-carbonitrile] | 324% | 4.24 | 40.9 nM
COC1CN(c2cnn(Cc3c(-c4ccc(Cl)nc4)noc3C)c(=O)c2)C1 [Example 212, 2-((3-(6-chloropyridin-3-yl)-5-methylisoxazol-4-yl)methyl)-5-(3-methoxyazetidin-1-yl)pyridazin-3(2H)-one] | 118% | 2.18 | 41.6 nM
CCOC1CN(c2cnn(Cc3c(-c4cnc(C)c(F)c4)noc3C)c(=O)c2)C1 [Example 213, 5-(3-ethoxyazetidin-1-yl)-2-((3-(5-fluoro-6-methylpyridin-3-yl)-5-methylisoxazol-4-yl)methyl)pyridazin-3(2H)-one] | 108% | 2.08 | 32.8 nM
COc1cc(-c2cnn(Cc3c(-c4ccc(Cl)nc4)noc3C)c(=O)c2)ccn1 [Example 214, 2-((3-(6-chloropyridin-3-yl)-5-methylisoxazol-4-yl)methyl)-5-(2-methoxypyridin-4-yl)pyridazin-3(2H)-one] | 74% | 1.74 | 8.3 nM
Cc1onc(-c2ccc(Cl)nc2)c1Cn1ncc(-c2cnn(C)c2)cc1=O [Example 215, 2-((3-(6-chloropyridin-3-yl)-5-methylisoxazol-4-yl)methyl)-5-(1-methyl-1H-pyrazol-4-yl)pyridazin-3(2H)-one] | 119% | 2.19 | 50 nM
Cc1ccc(-c2noc(C)c2Cn2ncc(N3CC4(CCCCO4)C3)cc2=O)cn1 [Example 216, 2-((5-methyl-3-(6-methylpyridin-3-yl)isoxazol-4-yl)methyl)-5-(5-oxa-2-azaspiro[3.5]nonan-2-yl)pyridazin-3(2H)-one] | 103% | 2.03 | 15.8 nM
Cc1onc(-c2ccc(Cl)nc2)c1Cn1ncc(N2CC3(C2)CC(F)(F)CO3)cc1=O [Example 217, 2-((3-(6-chloropyridin-3-yl)-5-methylisoxazol-4-yl)methyl)-5-(7,7-difluoro-5-oxa-2-azaspiro[3.4]octan-2-yl)pyridazin-3(2H)-one] | 85% | 1.85 | 12.3 nM
Cc1ccc(-c2noc(C)c2Cn2ncc(-c3ccc4ncc(C)n4c3)cc2=O)cn1 [Example 218, 2-((5-methyl-3-(6-methylpyridin-3-yl)isoxazol-4-yl)methyl)-5-(3-methylimidazo[1,2-a]pyridin-6-yl)pyridazin-3(2H)-one] | 84% | 1.84 | 19.8 nM
Cc1onc(-c2ccc(Cl)nc2)c1Cn1ncc(N2C[C@@H](C)O[C@@H](C)C2)cc1=O [Example 219, 2-((3-(6-chloropyridin-3-yl)-5-methylisoxazol-4-yl)methyl)-5-((2RS,6SR)-2,6-dimethylmorpholino)pyridazin-3(2H)-one] | 247% | 3.47 | 2.6 nM
